The values that follow come from patent US20250170176A1, “METHODS OF TREATMENT WITH CAR CELLS IN COMBINATION WITH S1P RECEPTOR MODULATORS” (PRIOTHERA SAS, priority 2022, published 2025).

Structures are written as SMILES.

Assay [1] has as its system absolute lymphocyte counts. Particulars: healthy volunteers; multiple dose applications for 28 days; cited from earlier work.
Another assay has as its system IFN-g, TNF-α and IL-2. As to the kind of experiment: Kinetics of plasma cytokines (BD CBA Human Th1/Th2/Th17) in JEKO-1 bearing NCG mice given CAR T cells (Example 3). It is filed as in vivo, mouse (NCG). Conditions: 5 days after CAR-T cells; mocravimod 3 mg/kg every second day from day 6. Here is the method:
(§1) To determine the kinetics of cytokine secretion and to evaluate the effectiveness of mocravimod in reducing the level of circulating cytokines when administered in combination with CAR T cells, NOD CRISPR Prkdc 112r Gamma (NCG) mice were injected i.v. with 5×10^6 JEKO-1-luc-GFP tumor cells. Treatment with either mocravimod or vehicle started on day 6 after tumor cell engraftment. Mocravimod (3 mg/kg) was administered every second day. 0.75×10^6 CAR T cells were injected i.v. on day 7 after tumor cell engraftment. Mice were bled 24 h, 48 h, 72 h, 96 h and 120 h post CAR T cell injection and plasma was collected. Interferon-g (IFN-g), Tumor necrosis factor-a (TNF-α) and Interleukin-2 (IL-2) were analyzed in plasma samples using the BD CBA Human Th1/Th2/Th17 cytokine assay. CAR T cells were phenotyped and enumerated in blood.

For assay [2], the system named is CAR-T cells. As to the kind of experiment: CAR-T cell activation markers by flow cytometry in leukemia mice (Example 1). It is filed as in vivo, mouse (C57BL/6J). Particulars: KRP203 administered from day −1. From the text: 6 to 8-week-old C57BL/6J male mice were obtained from Envigo. Ubi-GFP RAG1−/−OT-I TCR mice were bred and crossed in our animal facility under specific pathogen-free conditions. All experiments were approved by Institut Pasteur's Safety Committee in accordance with French and European guidelines (CETEA 2017-0038). Immortalized pro-B cells were generated by infecting bone marrow cells with a retrovirus encoding viral-Abelson kinase (v-abl). This tumor cell line was then retrovirally transduced to express a fluorescence resonance energy transfer (FRET)-based reporter for caspase 3 activity. Mice were examined every day and sacrificed in case of prostration, tousled hair, weakness or nodal tumor mass >1 cm. Cells were cultured in RPMI medium 1640-GlutaMAX™ supplemented with 10% heat-inactivated fetal bovine serum, 50 U·mL-1 penicillin, 50 μg·mL-1 streptomycin, 1 mM sodium pyruvate, 10 mM HEPES and 50 μM 2-mercaptoethanol, and maintained at 37° C. and 5% CO2. Cells were routinely tested for the absence of Mycoplasma contamination (Venor-GeM Advance mycoplasma detection kit, Minerva Biolabs). […]
For ex vivo analysis, bone marrow cells were isolated by flushing femurs and tibias from tumor-bearing mice and subsequent filtering through 70 μm cell strainers. […] Analyses were performed using a Cytoflex LX (Beckman Coulter) flow cytometer and analyzed with FlowJo v10.8.0 (BD). […]
A general note: In flow cytometry, cells or beads pass a laser one at a time.

Assay [3] deals with CAR-T cells. As to the kind of experiment: Absolute numbers of CAR-T cells in blood (Example 3). It is filed as in vivo, mouse (NCG). Particulars: mocravimod with CAR-T cells. The method, then: as §1
The same protocol as example 1 has been conducted for the method of analyzing CAR-T cells in bone marrow and the same protocol as the cytokine assay has been conducted for the method of analyzing CAR-T cells in blood.

Turning to `CCc1cc(/C(C)=N/OCc2ccc(C3CCCCC3)c(C(F)(F)F)c2)ccc1CN1CC(C(=O)O)C1` [BAF312], the “Recovery of absolute lymphocyte counts to 80% of normal counts reached after” value in assay [1] was 7 days.

For the molecule `NC(CO)(CO)CCc1ccc(Sc2cccc(OCc3ccccc3)c2)cc1Cl` [mocravimod, 2-amino-2-[4-(3-benzyloxyphenylthio)-2-chlorophenyl]ethyl-propane-1,3-diol], in the assay with IFN-g, TNF-α and IL-2, the “level of IFN-g in blood (plasma)” value is reported as “around 100 μg/mL”, the “level of IL-2 in blood (plasma)” value is “around 2 μg/mL” and the “level of TNFa in blood (plasma)” value was “around 0 μg/mL”. Moreover, in the assay on CAR-T cells [2], the “percentage of activation of CAR-T cells in lymph nodes, increase in comparison to the control” value is 2-3 times. In the assay on CAR-T cells [3] (day 1 after CAR-T injection), the “absolute number of CAR-T cells in blood” value is reported as “around 500”. The “absolute number of CAR-T cells in blood” value in the assay with CAR-T cells [3] (day 3 after CAR-T injection) is “around 500”. Besides, the “absolute number of CAR-T cells in blood” value with CAR-T cells [3] (day 5 after CAR-T injection) is recorded as “around 100”.
